From publication PMC3740683, “ML212: A small-molecule probe for investigating fluconazole resistance mechanisms in Candida albicans” (Beilstein Journal of Organic Chemistry, 2013) come the findings set out here.

The subject of one data set is C. albicans CaCi-2. Kind of data set: Primary screen and dose-response retest: CaCi-2 with 8 µg/mL fluconazole (Alamar Blue growth). It is filed as cell-based, Candida albicans. Conditions: Candida albicans, CACI2; 37 °C, 48 hours, with test compound and 8 µg/mL (26 µM) fluconazole; average of at least three independent experiments in duplicate; inactive = negligible activity at concentrations below 26 µM. The procedure:
All of the compounds prepared above were evaluated for their ability to chemosensitize the C. albicans test strains CaCi-2 and CaCi-8 towards fluconazole. […] The DMSO/fluconazole combination served as an internal control.
Protocols for cellular assays
Primary screen and dose-response retest: CaCi-2 with 8 µg/mL fluconazole […]
Clear, flat-bottom, black, 384-well plates (Corning Catalog no. 3712BC; Lot no. […]
DMSO; Fluconazole (Sequoia Research Products Ltd) 2 mg/mL stock solution in PBS; […]
(AG Scientific Catalog no. DAL 1100; Lot no.151016SA); PBS without calcium and magnesium (Cellgro Catalog no. 21-040-CV)
Synthetic defined growth medium
RPMI 1640 medium, (powder without sodium bicarbonate; Invitrogen Catalog no. […]
no. 028KO760); Glucose 40% (w/v) in water (Sigma Catalog no. G-5400); MOPS buffer […]
1) Prepare 1× RPMI medium by dissolving 10.4 grams powdered medium in 800 […]
2) Add 34.52 g MOPS. While stirring, adjust pH to 7.0 with 10 N NaOH.
3) Add 10 mL uridine solution, 50 mL glucose solution, adjust final volume to 1000 […]
Test Strain: C. albicans CaCi-2
1) Inoculate 500 µL of strain from cryopreserved stock into a 250 mL shaker flask containing 30 mL growth medium. Shake at 30 °C overnight.
2) Read OD 600 of 1 mL fungal culture in a cuvette using a standard optical density reader (Eppendorf BioPhotometer Plus), with growth medium as a background […]
3) Dilute to desired volume of fungal inoculums according to the following formula:
(1/OD measured) × (desired final volume of inoculum) × 0.3 = volume of fungal culture (µL) to add to desired volume of growth medium. When added to media in wells, this yields a calculated starting OD of the fungal inoculum of 0.00015.
1) Add fluconazole stock solution to fungal inoculum to achieve a final concentration […]
2) Add Pen/Strep at 0.1 mL per 10 mL media (1% v/v).
3) Use a Thermo Combi nL to dispense 20 µL/well of assay media into all wells.
4) Pin 25 nL test compound from compound plates into assay plates using CyBi- […]
5) Dispense 20 µL/well of culture into the assay media in all wells.
6) Incubate plates in a humidified (90% humidity) Liconic incubator at 37 °C without […]
7) Dilute Alamar Blue Reagent 1:40 in Ca/Mg-free PBS.
8) To all plates, add 5 µL/well of the diluted Alamar to a final dilution factor of 1:200.
9) Incubate the plates for an additional 2 hours.
10) Read the relative fluorescence intensity (RFU) of wells on a standard plate reader as a measure of relative fungal growth. EnVision (Perkin Elmer) plate reader setup: Ex 544 nm, Em 590 nm, bandwidth 12 nm, top read. […]
A general note: The colour change of resazurin is a common sign of viable cells or microbes.

A further data set can be described thus: Solubility in PBS. It is filed as physicochemical. Conditions: aqueous buffer.
Data set [1] in a line: Secondary assay 3: fibroblast toxicity. In kind it is cell-based. To be noted: mouse, NIH-3T3 fibroblasts, murine 3T3 fibroblasts. The procedure: 11) Read relative fluorescence intensity (RFU) of wells on a standard plate reader as […]
measure of relative fungal growth. EnVision (Perkin Elmer) plate reader settings: […]
Secondary assay 3: fibroblast toxicity
Clear, flat-bottom, black, 384-well plates (Corning Catalog no. 3712BC Lot no.
35808016); geldanamycin (AG Scientific Catalog no. G-1047) 15 mM stock solution in […]
DMSO; fluconazole (Sequoia Research Ltd.) 2 mg/mL stock solution in PBS; Alamar […]
Blue (AG Scientific Catalog no. DAL1100, Lot no. 151016SA); PBS w/o calcium and […]
magnesium (Cellgro Catalog no. 21-040-CV)
Optimem medium (Invitrogen Catalog no. 31985-070; Lot no. 548536); 2.5% (v/v) fetal […]
bovine serum (Hyclone Catalog no.30071.03; Lot no. ARF26748); 1% (v/v) Pen/Strep […]
Test strain: NIH-3T3 mammalian fibroblasts (ATCC CRL No. 1658) […]
1) Plate cells in 384-well plates at 6,000 cells/well in 20 µL assay medium.
2) Incubate plates overnight at 37 °C under 5% CO2.
1) After overnight culture, pin compounds into wells at 100 nL/well using the CyBio […]
CyBi-Well pinning instrument.
2) After pinning compounds, add 20 µL of assay medium supplemented with […]
fluconazole to each well. […]
6) Read the relative fluorescence intensity (RFU) of wells on a standard plate reader as a measure of relative cell growth. EnVision (Perkin Elmer) plate reader […]
setup: Ex 544 nm, Em […], bandwidth12 nm, top read.

Molecules are shown by their SMILES. Values after ≈ are worked out from the molar mass of the structure shown.

Consider `COC(=O)Cn1nc(-c2cccc(OC)c2)c2ccccc21` [Compound 36], for which the IC50 – broadly, the midpoint of a concentration-inhibition curve – with C. albicans CaCi-2 amounted to 0.7 ± 0.3 µM. The solubility (as a rule, how much of the substance goes into solution per volume) in “Solubility in PBS” turned out to be 55 µM (≈ 16.3 µg/mL). Also, in data set [1], the IC50 at 48 h was over 26 µM.
